Laboratory results as given in PMC9558053, “Development of a novel high-throughput screen for the identification of new inhibitors of protein S-acylation” (The Journal of Biological Chemistry, 2022).

Experiments:
human zDHHC3 = target: T1, human zDHHC3 (Homo sapiens, UniProt Q9NYG2); experiment: PSD95-mCHERRY S-acylation in HEK293T cells co-expressing zDHHC3; type: cell-based; settings: 25 μM
T1 construct: expressed in transfected cells; host or cells: HEK293T
T1 sequence (Q9NYG2 1-299): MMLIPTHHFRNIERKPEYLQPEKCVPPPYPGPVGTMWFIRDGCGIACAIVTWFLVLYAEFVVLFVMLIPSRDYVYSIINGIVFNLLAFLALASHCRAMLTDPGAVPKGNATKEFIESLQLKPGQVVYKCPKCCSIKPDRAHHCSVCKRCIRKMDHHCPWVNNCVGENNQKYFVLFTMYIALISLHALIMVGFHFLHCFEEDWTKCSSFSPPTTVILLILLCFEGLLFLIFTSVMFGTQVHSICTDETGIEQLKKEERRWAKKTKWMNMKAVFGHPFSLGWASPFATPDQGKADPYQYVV
Description: (§1) PSD95 (postsynaptic density protein 95) is a major S-acylated protein that has a critical role in the maturation of excitatory neurons and in synaptic plasticity ([46], [47]). PSD95 can be S-acylated by zDHHC2, zDHHC3, zDHHC7, and zDHHC15 ([6]). […] We therefore tested the effects of TTZ-1 and TTZ-2 on the S-acylation of PSD95 mediated by zDHHC2, zDHHC3, zDHHC7, and zDHHC15. […] In contrast, zDHHC3 and zDHHC7 activities toward PSD95 were unaffected by TTZ-1 and TTZ-2, mirroring the data obtained with GFP-SNAP25 as a substrate.
(§2) Figure 9 Activity of TTZ-1 and TTZ-2 against PSD95 S-acylation mediated by human zDHHC2, zDHHC3, zDHHC7, and zDHHC15 expressed in mammalian cells. HEK293T cells were transfected with a plasmid encoding PSD95-mCHERRY together with either a control plasmid pEF-BOS-HA (pEF) or a plasmid encoding either HA-tagged human zDHHC2 (zD2), zDHHC3 (zD3), zDHHC7 (zD7), or zDHHC15 (zD15) for 24 h. Cells were then preincubated for 4 h with TTZ-1 or TTZ-2 (25 μM final) or DMSO control before metabolic labeling with 100 μM C16:0-azide for 4 h. Cells were lysed, and proteins having incorporated C16:0-azide were labeled by click chemistry with an alkyne-IR800 dye. […] The data were quantified, and the graphs below each set of membranes show mean ± SEM of normalized S-acylation of PSD95-mCHERRY (click signal/RFP signal). […]

human zDHHC2 = target: T2, human zDHHC2 (Homo sapiens, UniProt Q9UIJ5); experiment: PSD95-mCHERRY S-acylation in HEK293T cells co-expressing zDHHC2; type: cell-based; settings: 25 μM
T2 construct: expressed in transfected cells; host or cells: HEK293T
T2 sequence (Q9UIJ5 1-367): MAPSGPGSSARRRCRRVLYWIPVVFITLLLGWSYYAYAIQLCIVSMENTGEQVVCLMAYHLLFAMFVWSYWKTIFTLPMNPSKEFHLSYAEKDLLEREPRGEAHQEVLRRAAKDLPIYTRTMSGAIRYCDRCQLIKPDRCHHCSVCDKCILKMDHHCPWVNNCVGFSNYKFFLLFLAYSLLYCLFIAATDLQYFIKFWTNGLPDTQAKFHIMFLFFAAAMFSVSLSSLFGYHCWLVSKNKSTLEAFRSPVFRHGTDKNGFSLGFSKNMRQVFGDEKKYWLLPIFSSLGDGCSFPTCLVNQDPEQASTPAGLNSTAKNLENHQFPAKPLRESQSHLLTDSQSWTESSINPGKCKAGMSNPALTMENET
Description: as §1, §2

| Compound | PSD95-mCHERRY S-acylation by zDHHC3 (human zDHHC3) | PSD95-mCHERRY S-acylation by zDHHC2 (human zDHHC2) |
| --- | --- | --- |
| O=C(Nc1cccc2c1OC(c1nnn[nH]1)CN2)c1ccc(OCCCCc2ccccc2)cc1 (stereo not shown) [TTZ-2, N-(2-(1H-Tetrazol-5-yl)-3,4-dihydro-2H-benzo[b][1,4]oxazin-8-yl)-4-(4-phenylbutoxy)benzamide] | unaffected | significantly inhibited |
| CCCCCCCOc1ccc(C(=O)Nc2cccc3c2OC(c2nnn[nH]2)CN3)cc1 (stereo not shown) [TTZ-1, N-(2-(1H-Tetrazol-5-yl)-3,4-dihydro-2H-benzo[b][1,4]oxazin-8-yl)-4-(heptyloxy)benzamide] | unaffected | significantly inhibited |
